Results reported in patent US7396837B2, “Antitumoral analogs of lamellarins” (Pharma Mar, S.A.U., priority 2002, dated 2008).
Read-outs that look alike come from different tables or passages of the source.

What was measured:
Type in all cases: cell-based
IGROV = test: SRB colorimetric cell growth inhibition assay, IGROV
Outline: (§1)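 Quantitation uses the sulforhodamine B reaction on cells exposed to sample for the whole assay period; results (mean ± SD, n = 3 wells) yield GI, TGI and LC.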

LNCaP = test: SRB colorimetric cell growth inhibition assay, LNCaP; details: Homo sapiens, LNCaP, LN-caP; for GI50: GI=growth inhibition, read-out: GI50 LN-caP; for CC50: cell killing (cytotoxic effect), read-out: LC50 LN-caP; for IC (TGI): total growth inhibition (cytostatic effect), read-out: TGI LN-caP
Outline: as §1

K-562 = test: SRB colorimetric cell growth inhibition assay, K-562; details: Homo sapiens, K562, K-562; for GI50: GI=growth inhibition, read-out: GI50 K-562; for CC50: LC=cell killing (cytotoxic effect), read-out: LC50 K-562; for IC (TGI): TGI=total growth inhibition (cytostatic effect), read-out: TGI K-562
Outline: as §1

PANC-1 = test: SRB colorimetric cell growth inhibition assay, PANC-1; details: Homo sapiens; for CC50: LC=cell killing (cytotoxic effect), read-out: LC50 PANC-1; for IC (TGI): TGI=total growth inhibition (cytostatic effect), read-out: TGI PANC-1; for GI50: GI=growth inhibition, read-out: GI50 PANC-1
Outline: as §1

A-549 = test: SRB colorimetric cell growth inhibition assay, A-549; details: Homo sapiens, A549, A-549; for GI50: GI=growth inhibition, read-out: GI50 A-549; for CC50: LC=cell killing (cytotoxic effect), read-out: LC50 A-549; for IC (TGI): TGI=total growth inhibition (cytostatic effect), read-out: TGI A-549
Outline: as §1

DU-145 = test: SRB colorimetric cell growth inhibition assay, DU-145; details: Homo sapiens; for CC50: cell killing (cytotoxic effect), read-out: LC50 DU-145; for GI50: GI=growth inhibition, read-out: GI50 DU-145; for IC (TGI): total growth inhibition (cytostatic effect), read-out: TGI DU-145
Outline: as §1

IGROV-ET = test: SRB colorimetric cell growth inhibition assay, IGROV-ET (ET-743 resistant); details: Homo sapiens, IGROV-ET; for GI50: GI=growth inhibition, read-out: GI50 IGROV-ET; for CC50: cell killing (cytotoxic effect), read-out: LC50 IGROV-ET; for IC (TGI): total growth inhibition (cytostatic effect), read-out: TGI IGROV-ET
Outline: as §1

LoVo = test: SRB colorimetric cell growth inhibition assay, LoVo; details: Homo sapiens; for CC50: LC=cell killing (cytotoxic effect), read-out: LC50 LOVO; for GI50: GI=growth inhibition, read-out: GI50 LOVO; for IC (TGI): TGI=total growth inhibition (cytostatic effect), read-out: TGI LOVO
Outline: as §1

SK-MEL-28 = test: SRB colorimetric cell growth inhibition assay, SK-MEL-28; details: Homo sapiens, SK-MEL-28, MEL-28; for GI50: GI=growth inhibition, read-out: GI50 MEL-28; for CC50: cell killing (cytotoxic effect), read-out: LC50 MEL-28; for IC (TGI): total growth inhibition (cytostatic effect), read-out: TGI MEL-28
Outline: as §1

H-MEC-1 = test: SRB colorimetric cell growth inhibition assay, H-MEC-1; details: Homo sapiens, HMEC-1, H-MEC-1; for GI50: GI=growth inhibition, read-out: GI50 H-MEC-1; for IC (TGI): total growth inhibition (cytostatic effect), read-out: TGI H-MEC-1
Outline: (§2)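 Growth inhibition (GI), total growth inhibition (TGI, cytostatic) and lethal concentration (LC, cytotoxic) come from an SRB-based colorimetric measure of growth and viability. Data are triplicate-well means ± SD.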

[1] = as above; details: human, H-MEC-1, cell killing (cytotoxic effect), read-out: LC50 H-MEC-1
Outline: as §2

SKOV-3 = test: SRB colorimetric cell growth inhibition assay, SKOV-3; details: Homo sapiens; for GI50: SK-OV-3, SKOV-3, GI=growth inhibition, read-out: GI50 SKOV-3; for LC50 (concentration causing 50% net cell killing) / IC (TGI): SK-OV-3, SKOV-3; for LC50 (concentration causing 50% net cell killing): cell killing (cytotoxic effect), read-out: LC50 SKOV-3; for IC (TGI): total growth inhibition (cytostatic effect), read-out: TGI SKOV-3
Outline: as §2

SK-BR-3 = test: SRB colorimetric cell growth inhibition assay, SK-BR-3; details: Homo sapiens; for CC50: cell killing (cytotoxic effect), read-out: LC50 SK-BR-3; for GI50: GI=growth inhibition, read-out: GI50 SK-BR-3; for IC (TGI): total growth inhibition (cytostatic effect), read-out: TGI SK-BR-3
Outline: as §1

LoVo-Dox = test: SRB colorimetric cell growth inhibition assay, LoVo-Dox (MDR)
Outline: as §1

HT-29 = test: SRB colorimetric cell growth inhibition assay, HT-29; details: Homo sapiens; for CC50: LC=cell killing (cytotoxic effect), read-out: LC50 HT-29; for GI50: GI=growth inhibition, read-out: GI50 HT-29; for IC (TGI): TGI=total growth inhibition (cytostatic effect), read-out: TGI HT-29
Outline: as §1

[2] = Homo sapiens, IGROV; cell killing (cytotoxic effect); read-out: LC50 IGROV
[3] = Homo sapiens, LOVO-DOX; GI=growth inhibition; read-out: GI50 LOVO-DOX
[4] = Homo sapiens, LOVO-DOX; LC=cell killing (cytotoxic effect); read-out: LC50 LOVO-DOX

COc1cc(-c2c3n(c4c(=O)oc5cc(OC(=O)[C@H](Cc6c[nH]c7ccccc67)NC(=O)OC(C)(C)C)c(OC)cc5c24)CCc2cc(OC(=O)[C@H](Cc4c[nH]c5ccccc45)NC(=O)OC(C)(C)C)c(OC)cc2-3)ccc1OC(=O)[C@H](Cc1c[nH]c2ccccc12)NC(=O)OC(C)(C)C [Compound 29]
CC50 (IGROV; [2]): 7350 nM
GI50 (IGROV; Homo sapiens; IGROV; GI=growth inhibition; read-out: GI50 IGROV): 367 nM
IC (TGI) (IGROV; Homo sapiens; IGROV; total growth inhibition (cytostatic effect); read-out: TGI IGROV): 1660 nM
GI50 (LNCaP): 70.4 nM
CC50 (LNCaP): 396 nM
IC (TGI) (LNCaP): 169 nM
GI50 (K-562): 481 nM
CC50 (K-562): 7350 nM
IC (TGI) (K-562): 3460 nM
CC50 (PANC-1; PANC-1, PANC-1): 7350 nM
IC (TGI) (PANC-1; PANC-1, PANC-1): 4230 nM
GI50 (PANC-1; PANC-1): 978 nM
GI50 (A-549): 1730 nM
CC50 (A-549): 7350 nM
IC (TGI) (A-549): 3630 nM
CC50 (DU-145; DU-145, DU-145): 3900 nM
GI50 (DU-145; DU-145): 198 nM
IC (TGI) (DU-145; DU-145): 440 nM
GI50 (IGROV-ET): 5650 nM
CC50 (IGROV-ET): 7350 nM
IC (TGI) (IGROV-ET): 7350 nM
CC50 (LoVo; LoVo): 7350 nM
GI50 (LoVo; LOVO): 2910 nM
IC (TGI) (LoVo; LOVO): 7350 nM
GI50 (SK-MEL-28): 1550 nM
CC50 (SK-MEL-28): 6450 nM
IC (TGI) (SK-MEL-28): 3170 nM
GI50 (H-MEC-1): 24.2 nM
IC (TGI) (H-MEC-1): 52.6 nM
LC50 (concentration giving 50% net cell killing) [1]: 290 nM
GI50 (SKOV-3): 1790 nM
LC50 (concentration causing 50% net cell killing) (SKOV-3): 7350 nM
IC (TGI) (SKOV-3): 3900 nM
CC50 (SK-BR-3; SK-BR-3, SK-BR-3): 7030 nM
GI50 (SK-BR-3; SK-BR-3): 242 nM
IC (TGI) (SK-BR-3; SK-BR-3): 525 nM
GI50 (LoVo-Dox; [3]): 7350 nM
CC50 (LoVo-Dox; [4]): 7350 nM
IC (TGI) (LoVo-Dox; Homo sapiens; LOVO-DOX; TGI=total growth inhibition (cytostatic effect); read-out: TGI LOVO-DOX): 7350 nM
CC50 (HT-29; HT-29, HT-29): 7350 nM
GI50 (HT-29; HT-29): 1840 nM
IC (TGI) (HT-29; HT-29): 5080 nM

COc1cc(-c2c3c4cc(OC)c(OC(=O)[C@@H]5CCCN5)cc4oc(=O)c3n3ccc4c(OC(=O)[C@@H]5CCCN5)c(OC)c(OC)cc4c23)ccc1OC(=O)[C@@H]1CCCN1 [Compound 30]
GI50 (IGROV; Homo sapiens, IGROV; GI=growth inhibition; read-out: GI50 IGROV): 350 nM
CC50 (IGROV; [2]): 6990 nM
IC (TGI) (IGROV; Homo sapiens, IGROV; total growth inhibition (cytostatic effect); read-out: TGI IGROV): 1470 nM
GI50 (LNCaP): 275 nM
CC50 (LNCaP): 4900 nM
IC (TGI) (LNCaP): 1270 nM
GI50 (K-562): 204 nM
CC50 (K-562): 8600 nM
IC (TGI) (K-562): 1100 nM
GI50 (PANC-1; PANC-1, PANC-1): 805 nM
CC50 (PANC-1; PANC-1, PANC-1): 5640 nM
IC (TGI) (PANC-1; PANC-1, PANC-1): 2180 nM
GI50 (A-549): 341 nM
CC50 (A-549): 6640 nM
IC (TGI) (A-549): 1270 nM
GI50 (DU-145; DU-145, DU-145): 53.8 nM
CC50 (DU-145; DU-145, DU-145): 3840 nM
IC (TGI) (DU-145; DU-145, DU-145): 265 nM
GI50 (IGROV-ET): 450 nM
CC50 (IGROV-ET): 6630 nM
IC (TGI) (IGROV-ET): 1830 nM
GI50 (LoVo; LoVo): 383 nM
CC50 (LoVo; LoVo): 3770 nM
IC (TGI) (LoVo; LoVo): 1060 nM
GI50 (SK-MEL-28): 251 nM
CC50 (SK-MEL-28): 4420 nM
IC (TGI) (SK-MEL-28): 1080 nM
GI50 (H-MEC-1): 70.5 nM
IC (TGI) (H-MEC-1): 241 nM
LC50 (concentration giving 50% net cell killing) ([1]; H-MEC-1 cells): 840 nM
GI50 (SKOV-3): 348 nM
LC50 (concentration causing 50% net cell killing) (SKOV-3): 5360 nM
IC (TGI) (SKOV-3): 1240 nM
GI50 (SK-BR-3; SK-BR-3, SK-BR-3): 498 nM
CC50 (SK-BR-3; SK-BR-3, SK-BR-3): 6390 nM
IC (TGI) (SK-BR-3; SK-BR-3, SK-BR-3): 1610 nM
GI50 (LoVo-Dox; [3]): 683 nM
CC50 (LoVo-Dox; [4]): 5220 nM
IC (TGI) (LoVo-Dox; Homo sapiens, LOVO-DOX; TGI=total growth inhibition (cytostatic effect); read-out: TGI LOVO-DOX): 1930 nM
GI50 (HT-29; HT-29, HT-29): 2810 nM
CC50 (HT-29; HT-29, HT-29): 8600 nM
IC (TGI) (HT-29; HT-29, HT-29): 5060 nM
